Measurements published in publication PMC11062894, “Protein-based bandpass filters for controlling cellular signaling with chemical inputs” (Nature Chemical Biology, 2023).
Where “and” joins values, the source holds several entries; their conditions need not be identical. Identical values can stand only once.

Test system: GEMS receptors with CBPvene (Bcl2–LD3 and Bcl2high variants), STAT3-driven SEAP in HEK293T cells
Experiment: GEMS SEAP reporter assay, CBPvene (Bcl2high, LD3-v and Bcl2-v variants) with venetoclax
Format: cell-based
[1] = CBPVene-v4-LD3v1, Venetoclax 10 nM
[2] = CBPVene-v4-LD3v1, Venetoclax 31.6 nM
[3] = CBPVene-v4-LD3v1, Venetoclax 100 nM
[4] = CBPVene-v4-LD3v1, Venetoclax 316 nM
[5] = CBPVene-v4-LD3v1, Venetoclax 1000 nM
[6] = CBPVene-v4-LD3v1, Venetoclax 3160 nM
[7] = CBPVene-v4-LD3v1, Venetoclax 10000 nM
[8] = CBPVene-v5, Venetoclax 10000 nM
[9] = CBPVene-v5-Bcl2v2, Venetoclax 1 nM
[10] = CBPVene-v5-Bcl2v2, Venetoclax 3.16 nM
[11] = CBPVene-v5-Bcl2v2, Venetoclax 10 nM
[12] = CBPVene-v5-Bcl2v2, Venetoclax 31.6 nM
[13] = CBPVene-v5-Bcl2v2, Venetoclax 316 nM

CC1(C)CCC(CN2CCN(c3ccc(C(=O)NS(=O)(=O)c4ccc(NCC5CCOCC5)c([N+](=O)[O-])c4)c(Oc4cnc5[nH]ccc5c4)c3)CC2)=C(c2ccc(Cl)cc2)C1 [Venetoclax]
Raw data Figure 5c [1]: 19.6376 and 23.1796 and 21.4266
Raw data of Independent repeat of CBPVene-v4 vs CBPVene-v4-LD3v1 [1]: 12.5143 and 15.3613 and 14.2991
Normalized data Figure 5c [2]: 33.2758 and 29.1991 and 22.5234
Raw data Figure 5c [2]: 32.1154 and 36.1941 and 32.5835
Raw data of Independent repeat of CBPVene-v4 vs CBPVene-v4-LD3v1 [2]: 19.3224 and 24.3766 and 24.2685
Normalized data Figure 5c [3]: 89.5011 and 73.3407 and 58.8514
Raw data Figure 5c [3]: 86.38 and 90.9103 and 85.1375
Raw data of Independent repeat of CBPVene-v4 vs CBPVene-v4-LD3v1 [3]: 49.6855 and 59.8551 and 68.5591
Normalized data Figure 5c [4]: 100
Raw data Figure 5c [4]: 96.5128 and 123.956 and 144.665
Raw data of Independent repeat of CBPVene-v4 vs CBPVene-v4-LD3v1 [4]: 75.2259 and 81.7396 and 83.8142
Normalized data Figure 5c [5]: 92.1259 and 70.027 and 66.0891
Raw data Figure 5c [5]: 88.9133 and 86.8028 and 95.608
Raw data of Independent repeat of CBPVene-v4 vs CBPVene-v4-LD3v1 [5]: 55.2813 and 57.5308 and 55.9265
Normalized data Figure 5c [6]: 41.115 and 38.8368 and 34.8585
Raw data Figure 5c [6]: 39.6812 and 48.1406 and 50.4281
Raw data of Independent repeat of CBPVene-v4 vs CBPVene-v4-LD3v1 [6]: 23.1338 and 27.3241 and 29.5684
Normalized data Figure 5c [7]: 12.9494 and 11.4961 and 9.578
Raw data Figure 5c [7]: 12.4978 and 14.2501 and 13.8554
Raw data of Independent repeat of CBPVene-v4 vs CBPVene-v4-LD3v1 [7]: 8.884 and 10.4059 and 11.3993
Raw data of Independent repeat of CBPVene-v5 vs CBPVene-v5-LD3v1 (CBPVene-v5, Venetoclax 0.01 nM): 29.6718 and 24.6839 and 26.501
Normalized data Figure 5c (CBPVene-v5, Venetoclax 1 nM): 7.442 and 6.278 and 6.718
Raw data Figure 5c (CBPVene-v5, Venetoclax 1 nM): 29.5956 and 26.0853 and 29.9849
Normalized data Figure 5c (CBPVene-v5, Venetoclax 3.16 nM): 9.477 and 7.971 and 8.021
Normalized data Figure 5f (CBPVene-v5, Venetoclax 3.16 nM): 5.255 and 4.508 and 3.901
Raw data Figure 5c (CBPVene-v5, Venetoclax 3.16 nM): 37.6876 and 33.119 and 35.8015
Raw data Figure 5f (CBPVene-v5, Venetoclax 3.16 nM): 30.3563 and 26.3908 and 26.6345
Raw data of Independent repeat of CBPVene-v5 vs CBPVene-v5-LD3v1 (CBPVene-v5, Venetoclax 3.16 nM): 30.3563 and 26.3908 and 26.6345
Normalized data Figure 5c (CBPVene-v5, Venetoclax 10 nM): 11.5779 and 11.0151 and 10.8723
Normalized data Figure 5f (CBPVene-v5, Venetoclax 10 nM): 9.191 and 6.8128 and 6.589
Raw data Figure 5c (CBPVene-v5, Venetoclax 10 nM): 46.0425 and 45.7651 and 48.5281
Raw data Figure 5f (CBPVene-v5, Venetoclax 10 nM): 53.0904 and 39.8802 and 44.9895
Raw data of Independent repeat of CBPVene-v5 vs CBPVene-v5-LD3v1 (CBPVene-v5, Venetoclax 10 nM): 53.0904 and 39.8802 and 44.9895
Normalized data Figure 5c (CBPVene-v5, Venetoclax 31.6 nM): 35.6775 and 32.4284 and 35.7596
Normalized data Figure 5f (CBPVene-v5, Venetoclax 31.6 nM): 4.7681 and 4.341 and 3.633
Raw data Figure 5c (CBPVene-v5, Venetoclax 31.6 nM): 141.881 and 134.732 and 159.612
Raw data Figure 5f (CBPVene-v5, Venetoclax 31.6 nM): 27.5418 and 25.4102 and 24.8086
Raw data of Independent repeat of CBPVene-v5 vs CBPVene-v5-LD3v1 (CBPVene-v5, Venetoclax 31.6 nM): 27.5418 and 25.4102 and 24.8086
Normalized data Figure 5c (CBPVene-v5, Venetoclax 100 nM): 85.9499 and 82.2485 and 75.1301
Normalized data Figure 5f (CBPVene-v5, Venetoclax 100 nM): 23.389 and 18.2031 and 16.6277
Raw data Figure 5c (CBPVene-v5, Venetoclax 100 nM): 341.802
Raw data Figure 5f (CBPVene-v5, Venetoclax 100 nM): 135.101
Raw data of Independent repeat of CBPVene-v5 vs CBPVene-v5-LD3v1 (CBPVene-v5, Venetoclax 100 nM): 135.101 and 106.556 and 113.538
Normalized data Figure 5c (CBPVene-v5, Venetoclax 316 nM): 100 and 99.2625
Normalized data Figure 5f (CBPVene-v5, Venetoclax 316 nM): 90.5991 and 73.5543 and 71.7832
Raw data Figure 5c (CBPVene-v5, Venetoclax 316 nM): 397.676 and 415.475 and 443.055
Raw data Figure 5f (CBPVene-v5, Venetoclax 316 nM): 523.324 and 430.565 and 490.151
Raw data of Independent repeat of CBPVene-v5 vs CBPVene-v5-LD3v1 (CBPVene-v5, Venetoclax 316 nM): 523.324 and 430.565 and 490.151
Normalized data Figure 5c (CBPVene-v5, Venetoclax 1000 nM): 94.7389 and 93.854 and 100
Normalized data Figure 5f (CBPVene-v5, Venetoclax 1000 nM): 100
Raw data Figure 5c (CBPVene-v5, Venetoclax 1000 nM): 376.754 and 389.94 and 446.347
Raw data Figure 5f (CBPVene-v5, Venetoclax 1000 nM): 577.626 and 585.371 and 682.822
Raw data of Independent repeat of CBPVene-v5 vs CBPVene-v5-LD3v1 (CBPVene-v5, Venetoclax 1000 nM): 585.371 and 682.822
Normalized data Figure 5c (CBPVene-v5, Venetoclax 3160 nM): 78.0027 and 76.1858 and 76.8944
Normalized data Figure 5f (CBPVene-v5, Venetoclax 3160 nM): 79.8503 and 79.8999 and 73.1753
Raw data Figure 5c (CBPVene-v5, Venetoclax 3160 nM): 310.198 and 316.533 and 343.216
Raw data Figure 5f (CBPVene-v5, Venetoclax 3160 nM): 461.236 and 467.711 and 499.656
Raw data of Independent repeat of CBPVene-v5 vs CBPVene-v5-LD3v1 (CBPVene-v5, Venetoclax 3160 nM): 461.236 and 467.711 and 499.656
Normalized data Figure 5c [8]: 34.0541 and 31.651 and 32.0007
Normalized data Figure 5f [8]: 53.1633 and 46.1135 and 46.4962
Raw data Figure 5c [8]: 135.425 and 131.502 and 142.834
Raw data Figure 5f [8]: 307.085 and 269.935 and 317.486
Normalized data Figure 5f [9]: 20.7725 and 19.0354 and 15.7869
Raw data Figure 5f [9]: 37.9718 and 36.6065 and 35.2814
Normalized data Figure 5f [10]: 20.3227 and 21.226 and 17.4104
Raw data Figure 5f [10]: 37.1496 and 40.8191 and 38.9099
Normalized data Figure 5f [11]: 19.4559 and 21.7686 and 18.6086
Raw data Figure 5f [11]: 35.5651 and 41.8626 and 41.5876
Normalized data Figure 5f [12]: 37.718 and 36.6086 and 30.2912
Raw data Figure 5f [12]: 68.9479 and 70.401 and 67.6966
Normalized data Figure 5f (CBPVene-v5-Bcl2v2, Venetoclax 100 nM): 81.9466 and 81.1265 and 85.7326
Normalized data Figure 5f [13]: 100
Raw data Figure 5f [13]: 182.798 and 192.307 and 223.486
